The source of these data is paper PMC5485613, “A novel TRPM8 agonist relieves dry eye discomfort” (BMC Ophthalmology, 2017).

Series [1] concerns hNav1.7 (sodium channels). Further details: method as in ref 63 = [63]; 63. Wei ET. Design of Topical Sensory/cooling TRPM8 agonists for cough. Abstracts of the First International Cough Conference, Guangzhou, China, November 10–11, 2013. To be noted: 5 μM; cited from earlier work.
In another series the target is T1, human TRPM8 (Homo sapiens, UniProt Q7Z2W7).
T1 construct: host or cells: CHO cells, stably transfected
As to the kind of experiment: TRPM8 calcium assay (Fluo-8, FLIPR) in transfected CHO cells. The following applies: x Menthol. The class given is cell-based. As to the method: Compounds were tested on Chinese Hamster Ovary (CHO) cells stably transfected with human TRPM8 cDNAs using a Fluo-8 calcium kit and a Fluorescence Imaging Plate Reader ([…]™) instrument. […] Solutions were prepared by diluting stock solutions in a HEPES-buffered physiological saline (HBPS) solution. Test compound and control formulations were loaded in polypropylene or glass-lined 384-well plates, and placed into the FLIPR instrument (Molecular Devices Corporation, Union City, CA, USA). Each was tested at 8 concentrations with n = 4 replicates per determination. […] For […]™ assay, cells were plated in 384-well black wall, flat clear-bottom microtiter plates (Type: BD Biocoat Poly-D-Lysine Multiwell Cell Culture Plate) at approximately 30,000 cells per well. Cells were incubated at 37 °C overnight to reach a near confluent monolayer appropriate for use in a fluorescence assay. The test procedure was to remove the growth media and to add 40 μL of HBPS containing Fluo-8 for 30 min at 37 °C. 10 μL of test compound, vehicle, or control solutions in HBPS were added to each well and read for 4 min. Concentration-response data were analyzed via the FLIPR Control software that is supplied with the FLIPR System (MDS-AT) and fitted to a Hill equation.

The next series has as its system cornea. On the set-up: method as in ref 62 = [62]; 62. Sung MS, Lee HS, Yang JM, Kim JG, Wei ET, Kim SJ, Yoon KC. paper presented at the 111th Annual Meeting of the Korean Ophthalmological Society, Busan, South Korea. 2014. The following applies: 2 mg/mL solution sprayed onto the closed eyelid; cited from earlier work.
A further series deals with T2, mouse TRPV1 (Mus musculus, UniProt Q704Y3).
T2 construct: expressed in transfected cells; host or cells: KNRK cells (rat kidney), transiently transfected
As to the kind of experiment: TRPV1 calcium imaging (Fura-2) in transfected KNRK cells. Format: cell-based. The following applies: 10 μM. As to the method:
(§1) To further examine the specificity of C3, tests were conducted on TRPV1 channels and TRPA1 channels expressed in Kirsten murine sarcoma virus transformed rat kidney (KNRK) cells. KNRK cells were cultured as a monolayer and maintained in Dulbeccos’s Modified Eagles’s Medium (Life Technologies), supplemented with 10% fetal bovine serum (Life Technologies), 100 units/mL penicillin and 100 μg/mL streptomycin, in an incubator of 5% CO2 at 37 °C. After suspension, the cells were coated on cover slips for 12 h, then transiently transfected with cDNA (pc3.1 DNA) for TRPV1 or TRPA1 with Lipofectamine 2000 (Invitrogen) for 24 h, and loaded with Fura-2 AM™ (Molecular Probes) for 40 min at 37 °C. After washing and recovery, KNRK cells were imaged at 340 and 380 nm excitation to detect free calcium influx. An increase of 50% of the 340/380 ratio was considered as the response threshold which were measured under masked conditions for plasmids. Compounds were applied to the bath and calcium response was acquired by an inverted Nikon fluorescence microscope with a CoolSnap HQ2 CCD camera (Photometrics, Tucson, AZ). Data were quantified offline with the Nikon-NIS program.

A further series has as its target T3, human TRPA1 (Homo sapiens, UniProt O75762).
T3 construct: expressed in transfected cells; host or cells: KNRK cells (rat kidney), transiently transfected
As to the kind of experiment: TRPA1 calcium imaging (Fura-2) in transfected KNRK cells. The class given is cell-based. The following applies: positive control, 100 μM. As to the method: as §1

Another series has as its system eye. To be noted: cited from earlier work.
A further series deals with TRPM8-sensory neurons. As to the kind of experiment: Calcium imaging of primary sensory neurons from Trpm8 EGFP mice. Format: cell-based, mouse. To be noted: menthol 100 μM. As to the method:
Calcium imaging was used to test the C3 selectivity on TRPM8-sensory neurons. Trpm8 ^+/EGFPmice were gifted by Dr. Yu-Qing Cao, Pain Center of Washington University in Saint Louis, School of Medicine, Missouri. Trigeminal ganglions and dorsal root ganglions from 4 to 5 weeks old mice were collected after CO2 euthanasia and digested for 30–40 min before plated on cover slips (8 mm), which were coated with poly-D-lysine for 40 min before use. Cover slips were gently washed with culture media to remove myelin after incubating for 35–40 min. Calcium imaging was done after incubation overnight at 37 °C, 5% CO2. Neurons were loaded with Fura-2 AM™ (Molecular Probes) for 30 min at room temperature. After washing and recovery, neurons were imaged at 340 and 380 nm excitation to detect free calcium influx. An increase of 50% of the 340/380 ratio was considered as the response threshold which were measured under blinded conditions for genotypes. Compounds were applied to the bath and calcium response was acquired by an inverted Nikon fluorescence microscope with a CoolSnap HQ2 CCD camera (Photometrics, Tucson, AZ). Data was quantified offline with the Nikon-NIS program.

On the set-up of series [2]: method as in ref 28 = [28]; 28. Wei ET. Topical agents for the treatment of sensory discomfort in the nasal membranes. US20150265752 A1, Sept. 24, 2015. To be noted: cited from earlier work.

T1 sequence (Q7Z2W7 whole entry): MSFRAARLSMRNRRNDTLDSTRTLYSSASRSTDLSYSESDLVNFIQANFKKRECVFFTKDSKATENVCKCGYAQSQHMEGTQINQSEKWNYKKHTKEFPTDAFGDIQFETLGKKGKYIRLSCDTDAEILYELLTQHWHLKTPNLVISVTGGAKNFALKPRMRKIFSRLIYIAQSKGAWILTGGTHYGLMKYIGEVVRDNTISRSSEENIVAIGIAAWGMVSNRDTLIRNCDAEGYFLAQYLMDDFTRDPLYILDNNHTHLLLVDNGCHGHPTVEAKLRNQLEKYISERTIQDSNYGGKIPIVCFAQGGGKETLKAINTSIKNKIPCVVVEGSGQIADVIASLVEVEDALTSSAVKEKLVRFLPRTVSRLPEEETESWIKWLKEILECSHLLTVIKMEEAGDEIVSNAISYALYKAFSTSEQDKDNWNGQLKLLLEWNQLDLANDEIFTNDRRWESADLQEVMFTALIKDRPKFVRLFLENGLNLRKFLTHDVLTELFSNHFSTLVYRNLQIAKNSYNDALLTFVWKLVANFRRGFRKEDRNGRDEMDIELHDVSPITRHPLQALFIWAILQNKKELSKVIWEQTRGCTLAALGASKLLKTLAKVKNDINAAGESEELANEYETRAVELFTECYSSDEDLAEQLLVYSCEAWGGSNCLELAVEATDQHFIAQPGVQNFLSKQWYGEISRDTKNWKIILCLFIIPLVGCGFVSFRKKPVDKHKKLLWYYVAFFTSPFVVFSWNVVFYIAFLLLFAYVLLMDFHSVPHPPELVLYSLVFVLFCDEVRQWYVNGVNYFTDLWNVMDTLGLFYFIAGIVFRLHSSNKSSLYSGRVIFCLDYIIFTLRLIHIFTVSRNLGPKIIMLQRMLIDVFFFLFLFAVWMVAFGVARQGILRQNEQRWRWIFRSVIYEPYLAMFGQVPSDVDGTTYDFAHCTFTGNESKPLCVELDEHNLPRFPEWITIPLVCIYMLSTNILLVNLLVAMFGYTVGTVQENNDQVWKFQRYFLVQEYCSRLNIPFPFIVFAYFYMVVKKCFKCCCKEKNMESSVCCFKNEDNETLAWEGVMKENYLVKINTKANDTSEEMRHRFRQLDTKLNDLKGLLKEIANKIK
T3 sequence (O75762 whole entry): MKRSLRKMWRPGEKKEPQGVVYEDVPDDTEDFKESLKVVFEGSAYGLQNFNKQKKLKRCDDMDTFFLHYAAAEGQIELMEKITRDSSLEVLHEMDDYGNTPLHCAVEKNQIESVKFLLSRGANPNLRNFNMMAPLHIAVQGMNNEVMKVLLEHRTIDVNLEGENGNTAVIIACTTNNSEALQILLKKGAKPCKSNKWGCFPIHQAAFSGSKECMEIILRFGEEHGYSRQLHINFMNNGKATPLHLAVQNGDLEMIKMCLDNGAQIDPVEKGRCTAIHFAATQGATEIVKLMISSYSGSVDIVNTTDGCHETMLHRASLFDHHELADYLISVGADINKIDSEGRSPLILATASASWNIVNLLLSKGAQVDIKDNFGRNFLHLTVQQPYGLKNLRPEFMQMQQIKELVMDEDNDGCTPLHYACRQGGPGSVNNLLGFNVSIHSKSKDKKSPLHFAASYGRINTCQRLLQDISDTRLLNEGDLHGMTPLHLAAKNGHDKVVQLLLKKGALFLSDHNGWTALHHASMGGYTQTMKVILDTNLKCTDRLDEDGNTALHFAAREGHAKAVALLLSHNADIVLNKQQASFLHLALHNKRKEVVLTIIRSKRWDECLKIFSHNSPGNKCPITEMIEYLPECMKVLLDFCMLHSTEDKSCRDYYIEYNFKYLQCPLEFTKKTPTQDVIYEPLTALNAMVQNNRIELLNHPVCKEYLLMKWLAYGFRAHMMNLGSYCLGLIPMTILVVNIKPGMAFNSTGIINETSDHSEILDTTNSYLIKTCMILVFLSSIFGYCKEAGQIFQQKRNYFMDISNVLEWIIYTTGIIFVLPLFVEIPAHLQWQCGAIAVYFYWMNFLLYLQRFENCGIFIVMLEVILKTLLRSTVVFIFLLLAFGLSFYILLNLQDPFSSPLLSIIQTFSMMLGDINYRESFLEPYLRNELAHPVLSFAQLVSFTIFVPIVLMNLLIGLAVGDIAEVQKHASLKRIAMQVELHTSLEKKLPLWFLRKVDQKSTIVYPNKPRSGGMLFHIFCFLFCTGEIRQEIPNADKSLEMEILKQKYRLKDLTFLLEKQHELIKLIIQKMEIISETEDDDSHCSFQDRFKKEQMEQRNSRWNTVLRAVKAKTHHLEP
T2 sequence (Q704Y3 whole entry): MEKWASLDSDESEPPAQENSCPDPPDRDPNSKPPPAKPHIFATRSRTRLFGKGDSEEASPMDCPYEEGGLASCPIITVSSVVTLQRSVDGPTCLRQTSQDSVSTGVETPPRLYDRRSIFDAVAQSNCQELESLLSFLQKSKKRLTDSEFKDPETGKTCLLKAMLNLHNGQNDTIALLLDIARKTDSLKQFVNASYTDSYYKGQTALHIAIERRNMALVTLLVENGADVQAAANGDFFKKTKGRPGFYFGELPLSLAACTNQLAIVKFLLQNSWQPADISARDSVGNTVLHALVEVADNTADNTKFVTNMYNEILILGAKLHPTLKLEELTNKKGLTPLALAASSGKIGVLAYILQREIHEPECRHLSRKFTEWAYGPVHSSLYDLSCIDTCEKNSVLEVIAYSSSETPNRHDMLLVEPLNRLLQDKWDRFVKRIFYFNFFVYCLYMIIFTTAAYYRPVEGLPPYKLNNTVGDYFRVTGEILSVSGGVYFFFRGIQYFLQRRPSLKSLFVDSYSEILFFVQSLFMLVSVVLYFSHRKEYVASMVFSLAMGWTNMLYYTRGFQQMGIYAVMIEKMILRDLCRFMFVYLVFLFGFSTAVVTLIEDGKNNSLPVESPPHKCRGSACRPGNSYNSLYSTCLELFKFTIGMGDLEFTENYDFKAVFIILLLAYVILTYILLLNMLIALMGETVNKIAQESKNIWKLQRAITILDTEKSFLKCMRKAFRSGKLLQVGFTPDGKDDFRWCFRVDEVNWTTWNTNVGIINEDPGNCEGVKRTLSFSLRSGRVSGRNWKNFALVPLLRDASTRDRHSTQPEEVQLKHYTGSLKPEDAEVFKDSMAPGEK

For the compound `CCCCCP(=O)(C(C)CC)C(C)CC` (stereo not shown) [1-di-sec-butylphosphoryl-pentane], the “lidocaine-like activity on hNav1.7” value in series [1] is “did not have lidocaine-like activity”. Moreover, the “relative potency to l-menthol (menthol = 1)” value (“relative potency to l-menthol” for short) at human TRPM8 is 2.2. Besides, the corneal sensitivity result in the series on cornea is “not affected”.

Consider `CCCCCCCCP(=O)(C(C)C)C(C)C` [1-diisopropylphosphoryl-octane], for which the “relative potency to l-menthol” value on human TRPM8 was 5.4.

Take `CCCCCCCCP(=O)(C(C)CC)C(C)CC` (stereo not shown) [1-di-sec-butylphosphoryl-octane]: the “relative potency to l-menthol” value on human TRPM8 is on record as 2.9.

On to `COc1cc(CNC(=O)CCCC/C=C/C(C)C)ccc1O` [capsaicin, reference compound], for which the “activation of TRPV1 (calcium response)” value at mouse TRPV1 was “active”.

As to `CCCCCCP(=O)(C(C)C)C(C)C` [1-diisopropylphosphoryl-hexane], at human TRPM8, the “relative potency to l-menthol” value came to 1.6.

As for `C=CCN=C=S` [mustard oil, reference compound], the “activation of TRPA1 (calcium response)” value at human TRPA1 is recorded as “active”.

Consider `CCCCCCP(=O)(C(C)CC)C(C)CC` (stereo not shown) [1-di-sec-butylphosphoryl-hexane], for which the “relative potency to l-menthol” value at human TRPM8 is given as 4.7.

As for `CC(C)[C@@H]1CC[C@@H](C)C[C@H]1O` [l-menthol, reference compound], the “eye sensation after menthol solutions” value in the series with eye is given as “stinging followed by a brief episode of cooling”. In addition, in the series on TRPM8-sensory neurons, the “calcium response of Trpm8 EGFPf/+ neurons” value is “sensitive”.

In the case of `CCCCCP(=O)(CC(C)C)CC(C)C` [1-diisobutylphosphoryl-pentane], the “relative potency to l-menthol” value at human TRPM8 is given as 0.2.

With `CCCCCCCP(=O)(C(C)C)C(C)C` [1-diisopropylphosphoryl-heptane], on human TRPM8, the “relative potency to l-menthol” value was 5.4.

Regarding `CCC(C)P(=O)(CCC(C)C)C(C)CC` (stereo not shown) [1-di-sec-butylphosphoryl-3-methyl-butane], the “relative potency to l-menthol” value on human TRPM8 was found to be 0.9.

As to `CCCCCP(=O)(C(C)C)C(C)C` [1-diisopropylphosphoryl-pentane], at human TRPM8, the “relative potency to l-menthol” value was determined as 0.7.

In the case of `CCCCP(=O)(C(C)CC)C(C)CC` (stereo not shown) [1-di-sec-butylphosphoryl-4], the “relative potency to l-menthol” value on human TRPM8 came out at 0.3.

As for `O=C1NC(c2cccc([N+](=O)[O-])c2)=CCN1c1ccccc1O` [Icilin, icilin], the “sensation on the eyelids” value with eye (anecdotal) was “punctate and long-lasting cooling”. The “solubility in ophthalmic vehicles” value in series [2] was “not soluble”.

As for `CCCCCCCP(=O)(C(C)CC)C(C)CC` (stereo not shown) [1-di-sec-butylphosphoryl-heptane], the “relative potency to l-menthol” value at human TRPM8 turned out to be 3.4.
